Laboratory results published in patent publication US20240115592A1, “PGC-1alpha EXPRESSION PROMOTING AGENT, MUSCLE-BUILDING AGENT AND MITOCHONDRIA ACTIVATING AGENT” (YAMASA CORPORATION, priority 2020, published 2024).

Columns and labels:
[1] = tested on: PGC-1α; conditions: neurons; Patent Literature 1; cited from earlier work
[2] = tested on: Myogenin; assay: Myogenin gene expression promoting effect (II) (Example 4); assay type: cell-based, Mouse; conditions: C2C12 cells, 4-6 days, vs control
Method: (§1) Mouse myoblast cell line C2C12 cells (RIKEN BRC, RCB0987) were suspended in growth medium (Dulbecco's modified Eagle's Medium supplemented with 10% FBS, 100 units/ml of penicillin, 100 μg/ml of streptomycin), seeded in 24-well plates, and incubated in a 37° C., 5% CO2 incubator until the cell density reached 70-90%. […] After culturing the cells for 4-6 days while exchanging the medium once every 2 days, the medium was removed, and total RNA was extracted from the cells using the RNeasy Mini kit (QIAGEN).
(§2) A level of Myogenin mRNA expression, a marker gene for myotube cell differentiation, was evaluated by the following method:
(§3) Cell culture and treatment with the test substances, total RNA extraction and reverse transcription reaction were performed as in Example 2. Real-time PCR analysis was used to determine mRNA expression levels of Myogenin and β-actin as an internal standard. Statistical analysis was also performed in the same method as that of Example 1.

[3] = tested on: C2C12 cells; assay: Myotube cell diameter increasing effect (II) (Example 10); assay type: cell-based, Mouse; conditions: 5-6 days; for myotube cell diameter (photographs): FIG. 13; for myotube cell diameter (ImageJ, average of 50 cells): vs control, FIGS. 14 to 17
Method: Cell culture and addition of test substances were carried out by the same method as that of Example 2. The cells were cultured for 5-6 days while exchanging a differentiation inducing medium containing the test substances once every 2 days, and five positions near the center of the wells were then photographed at magnifications of 100.
Also, using ImageJ image analysis software, the diameters of ten myotube cells per a photograph were measured in order from the myotube cell having the largest diameter, and an average of 50 cells was determined to be the diameter of the myotube cell in each well. Statistical analysis was also performed by the same method as that of Example 2.

[4] = tested on: Myh7; assay: Myh7 gene expression promoting effect (II) (Example 6); assay type: cell-based, Mouse; conditions: C2C12 cells, 4-6 days, vs control
Method: as §1
(§4) A level of Myh7 mRNA expression encoding a slow-muscle type myosin protein was evaluated using the following method:
as §3, with “Myh7” for “Myogenin”

[5] = tested on: PGC-1α; assay: PGC-1α gene expression promoting effect (II), real-time PCR (Example 2); assay type: cell-based, Mouse; conditions: C2C12 cells, 4-6 days, corrected by β-actin, vs control; FIG. 2
Method: as §1
Using the total RNA as a template, a reverse transcription reaction solution was prepared using the ReverTra Ace® qPCR RT Kit (Toyobo). The reverse transcription reaction solution, GoTaq® qPCR Master Mix (Promega), and a real-time PCR device, Thermal Cycler Dice Real Time System (Takara Bio), were used to measure the mRNA expression levels of PGC-1α and β-actin as an internal standard. Analysis was performed by relative quantification, and the mRNA expression level was corrected using the β-actin mRNA expression level as an endogenous control. Statistical analysis was performed by t-test or Dunnett's multiple comparison test using the differentiation induction medium treatment group without the test substances as a control. The threshold of statistical significance was set to 5%.

[6] = tested on: C2C12 cells; assay: Mitochondrial DNA copy number increasing effect (I) (Example 7); assay type: cell-based, Mouse; conditions: 1 mM or 5 mM disodium cytidylate, 6 days, n=3, FIG. 9
Method: Cell culture and addition of test substance were carried out by the same method as that of Example 1. The cells were cultured for 6 days while exchanging a differentiation induction medium containing the test substance once every 2 days, the medium was then removed and total DNA was extracted from the cells using DNeasy Blood & Tissue kit (QIAGEN). Extracted DNA, GoTaq® qPCR Master Mix (Promega) and a real-time PCR device, Thermal Cycler Dice Real Time System (Takara Bio), were used to determine COX2 (Cytochrome c oxidase subunit 2), a gene encoded in the mitochondrial DNA, and PPIA (Cyclophilin A), a gene encoded in […] DNA as an internal standard. The amount of COX2 present relative to the amount of PPIA present was evaluated as the mitochondrial DNA copy number. Statistical analysis was performed by the same method as that of Example 1. This Example was studied with n=3.

[7] = tested on: Myogenin; assay: Myogenin gene expression promoting effect (I) (Example 3); assay type: cell-based, Mouse; conditions: C2C12 cells, disodium cytidylate, 6 days, vs control; FIG. 3
Method: as §2
(§5) Mouse myoblast cell line C2C12 cells were suspended in growth medium, seeded in 24-well plates, and incubated in a 37° C., 5% CO2 incubator until the cell density reached 70-90%. The growth medium was removed, and exchanged to a differentiation induction medium containing 1 mM disodium cytidylate or 1 mM disodium cytidylate or containing no cytidylic acid. The cells were cultured for 6 days while exchanging the medium once every 2 days. Total RNA extraction and reverse transcription reaction were performed as in Example 1. Real-time PCR analysis was used to determine mRNA expression levels of Myogenin and β-actin as an internal standard. Statistical analysis was performed in the same method as that of Example 1.

[8] = tested on: Myh7; assay: Myh7 gene expression promoting effect (I) (Example 5); assay type: cell-based, Mouse; conditions: C2C12 cells, 5 mM disodium cytidylate, 4 days, vs control; FIG. 6
Method: as §4
as §5, with “5” for “1 mM disodium cytidylate or 1”, “4” for “6”, “days, and the medium was then removed, and the total” for “days. Total”, “Myh7” for “Myogenin”, “Welch's t-test” for “Statistical analysis”, “used for statistical analysis. The threshold for statistical significance was set to 5%.” for “performed in the same method as that of Example 1.”

[9] = tested on: PGC-1α; assay: PGC-1α gene expression promoting effect (I), real-time PCR (Example 1); assay type: cell-based, Mouse; conditions: C2C12 cells, 1 mM or 5 mM disodium cytidylate, 6 days, corrected by β-actin, vs control; FIG. 1
Method: Mouse myoblast cell line C2C12 cells (RIKEN BRC, RCB0987) were suspended in growth medium (Dulbecco's modified Eagle's Medium supplemented with 10% FBS, 100 units/ml of penicillin, 100 μg/ml of streptomycin), seeded in 24-well plates, and incubated in a 37° C., 5% CO2 incubator until the cell density reached 70-90%. […] After culturing the cells for 6 days while exchanging the medium once every 2 days, the medium was removed, and total RNA was extracted from the cells using the RNeasy Mini kit (QIAGEN). Unless otherwise stated, each sample n=6 was used for the study, including the following Examples. Using the total RNA as a template, a reverse transcription reaction solution was prepared using the ReverTra Ace® qPCR RT Kit (Toyobo). The reverse transcription reaction solution, GoTaq® qPCR Master Mix (Promega), and a real-time PCR device, Thermal Cycler Dice Real Time System (Takara Bio), were used to measure mRNA expression levels of PGC-1α and β-actin as an internal standard. Analysis was performed by relative quantification, and mRNA expression levels were corrected using the β-actin mRNA expression level as an endogenous control. Dunnett's multiple comparison test was performed for statistical analysis. The threshold of statistical significance was set to 5%.

[10] = tested on: C2C12 cells; assay: Myotube cell diameter increasing effect (I) (Example 9); assay type: cell-based, Mouse; conditions: 6 days; for Average myotube cell diameter: control 53.9
Method: Cell culture and addition of a test substance were carried out by the same method as that of Example 1. The cells were cultured for 6 days while exchanging a differentiation inducing medium containing the test substance once every 2 days, and five positions near the center of the wells were then photographed at magnifications of 100. Using ImageJ image analysis software, the diameters of ten myotube cells per a photograph were measured in order from the myotube cell having the largest diameter, and an average of 50 cells was determined to be the diameter of the myotube cell in each well. Statistical analysis was performed by the same method as that of Example 1. Photographs of representative examples of the respective groups are shown in FIG. 11, and the measured results of the average myotube cell diameter are shown in Table 1 and FIG. 12.

[11] = tested on: C2C12 cells; assay: Mitochondrial DNA copy number increasing effect (II) (Example 8); assay type: cell-based, Mouse; conditions: 6 days, n=3, FIG. 10
Method: Cell culture and addition of test substances were carried out in the same method as that of Example 2. The cells were cultured for 6 days, the medium was then removed and total DNA was extracted from the cells using DNeasy Blood & Tissue kit (QIAGEN).
Extracted DNA, GoTaq® qPCR Master Mix (Promega) and a real-time PCR device, Thermal Cycler Dice Real Time System (Takara Bio), were used to determine COX2 (Cytochrome c oxidase subunit 2), a gene encoded in the mitochondrial DNA, and PPIA (Cyclophilin A), a gene encoded in […] DNA, as an internal standard.
The amount of COX2 present relative to the amount of PPIA present was evaluated as the mitochondrial DNA copy number. Statistical analysis was performed by the same method as that of Example 1. This Example was studied with n=3.

[12] = tested on: mitochondria; conditions: Patent Literature 3; cited from earlier work

| Compound | Myogenin mRNA expression level ([2]; FIG. 5) | myotube cell diameter (photographs) [3] | myotube cell diameter (ImageJ, average of 50 cells) [3] | PGC-1α mRNA expression level [5] | Myogenin mRNA expression level ([2]; FIG. 4) | Myh7 mRNA expression level ([4]; FIG. 7) | mitochondrial DNA copy number (COX2 relative to PPIA) [11] | also measured |
| --- | --- | --- | --- | --- | --- | --- | --- | --- |
| CCc1oc(=O)c(Cc2c(O)c(C)c(CC)oc2=O)c(O)c1C [Helipyrone A] | – | – | – | – | – | – | – | PGC-1α production [1]: promotes PGC-1α production in neurons |
| Nc1ccn([C@@H]2O[C@H](CO)[C@@H](O)[C@H]2O)c(=O)n1 [cytidine] | excellent myotube cell differentiation promoting effect | significantly increased | concentration-dependently and remarkably increased | – | – | – | – | Myh7 mRNA expression level ([4]; FIG. 8): markedly enhanced |
| Nc1ccn([C@@H]2O[C@H](COP(=O)(O)O)[C@@H](O)[C@H]2O)c(=O)n1 [cytidylic acid] | remarkably enhanced | significantly increased | concentration-dependently and remarkably increased | concentration-dependently and remarkably enhanced | remarkably enhanced | remarkably enhanced | concentration-dependently and remarkably enhanced | mitochondrial DNA copy number (COX2 relative to PPIA) [6]: concentration-dependently and remarkably enhanced; Myogenin mRNA expression level [7]: concentration-dependently and remarkably enhanced; Myh7 mRNA expression level [8]: markedly enhanced; PGC-1α mRNA expression level [9]: concentration-dependently and remarkably enhanced; Average myotube cell diameter ([10]; 1 mM CMP): 61.1 μm; Average myotube cell diameter ([10]; 5 mM CMP): 62.5 μm; myotube cell diameter ([10]; vs control, FIGS. 11 and 12): concentration-dependently and remarkably increased |
| O=C(O)c1cc(C(=O)O)c2c(n1)C(=O)C(=O)c1cc(C(=O)O)[nH]c1-2 [pyrroloquinoline quinone] | – | – | – | – | – | – | – | mitochondria activating effects [12]: exhibits mitochondria activating effects |
| O=c1ccn([C@@H]2O[C@H](CO)[C@@H](O)[C@H]2O)c(=O)[nH]1 [uridine] | – | significantly increased | concentration-dependently and remarkably increased | – | – | – | – | – |
| O=c1ccn([C@@H]2O[C@H](COP(=O)(O)O)[C@@H](O)[C@H]2O)c(=O)[nH]1 [uridylic acid] | – | significantly increased | significantly increased | concentration-dependently and remarkably enhanced | remarkably enhanced | remarkably enhanced | concentration-dependently and remarkably enhanced | – |
